From ChEMBL document CHEMBL3044807, “Synthesis and biological evaluation of new ozonides with improved plant growth regulatory activity” (2009)

What was measured:
Type in all cases: functional
Sorghum bicolor [1] = test: Phytotoxic activity against Sorghum bicolor seedlings assessed as germination at 5x10'-4 mol/l at 28 +/-1 degC after 48 hr by acid-washed sand based radicle elongation assay (reference value: 100%)
Cucumis sativus [2] = test: Phytotoxic activity against Cucumis sativus (cucumber) assessed as root growth inhibition at 5.0 x 10^-4 mol/l measured 15 days after seed sowing under greenhouse trials (reference value: 0.0%); conditions: 360 h
Cucumis sativus [3] = test: Phytotoxic activity against Cucumis sativus (cucumber) assessed as aerial part growth inhibition at 5.0 x 10^-4 mol/l measured 15 days after seed sowing under greenhouse trials (reference value: 0.0%); conditions: 360 h
Sorghum bicolor [4] = test: Phytotoxic activity against Sorghum bicolor assessed as root growth inhibition at 5.0 x 10^-4 mol/l measured 15 days after seed sowing under greenhouse trials (reference value: 0.0%); conditions: 360 h
Cucumis sativus [5] = test: Phytotoxic activity against Cucumis sativus (cucumber) seedlings assessed as inhibition of radicle growth at 5x10'-4 mol/l at 28 +/-1 degC after 48 hr by acid-washed sand based radicle elongation assay (reference value: 0.0%)
Cucumis sativus [6] = test: Phytotoxic activity against Cucumis sativus (cucumber) assessed as weight of roots at 5.0 x 10^-4 mol/l measured 15 days after seed sowing under greenhouse trials (reference value: 31.0 mg)
Sorghum bicolor [7] = test: Phytotoxic activity against Sorghum bicolor seedlings assessed as radicle length at 5x10'-4 mol/l at 28 +/-1 degC after 48 hr by acid-washed sand based radicle elongation assay (reference value: 5.1 cm)
Cucumis sativus [8] = test: Phytotoxic activity against Cucumis sativus (cucumber) seedlings assessed as germination at 5x10'-4 mol/l at 28 +/-1 degC after 48 hr by acid-washed sand based radicle elongation assay (reference value: 100%)
Sorghum bicolor [9] = test: Phytotoxic activity against Sorghum bicolor assessed as aerial part growth inhibition at 5.0 x 10^-4 mol/l measured 15 days after seed sowing under greenhouse trials (reference value: 0.0%); conditions: 360 h
Cucumis sativus [10] = test: Phytotoxic activity against Cucumis sativus (cucumber) seedlings assessed as radicle length at 5x10'-4 mol/l at 28 +/-1 degC after 48 hr by acid-washed sand based radicle elongation assay (reference value: 4.8 cm)
Cucumis sativus [11] = test: Phytotoxic activity against Cucumis sativus (cucumber) assessed as weight of aerial parts at 5.0 x 10^-4 mol/l measured 15 days after seed sowing under greenhouse trials (reference value: 47.0 mg)
Sorghum bicolor [12] = test: Phytotoxic activity against Sorghum bicolor assessed as weight of roots at 5.0 x 10^-4 mol/l measured 15 days after seed sowing under greenhouse trials (reference value: 14.0 mg)
Sorghum bicolor [13] = test: Phytotoxic activity against Sorghum bicolor assessed as weight of aerial parts at 5.0 x 10^-4 mol/l measured 15 days after seed sowing under greenhouse trials (reference value: 19.0 mg)
Sorghum bicolor [14] = test: Phytotoxic activity against Sorghum bicolor seedlings assessed as inhibition of radicle growth at 5x10'-4 mol/l at 28 +/-1 degC after 48 hr by acid-washed sand based radicle elongation assay (reference value: 0.0%)
Urochloa decumbens [15] = test: Phytotoxic activity against Urochloa decumbens assessed as aerial part growth inhibition at 5.0 x 10^-4 mol/l measured 21 days after seed sowing under greenhouse trials (reference value: 0.0%); conditions: 504 h
Ipomoea grandifolia [16] = test: Phytotoxic activity against Ipomoea grandifolia assessed as root growth inhibition at 5.0 x 10^-4 mol/l measured 21 days after seed sowing under greenhouse trials (reference value: 0.0%); conditions: 504 h
Urochloa decumbens [17] = test: Phytotoxic activity against Urochloa decumbens assessed as root growth inhibition at 5.0 x 10^-4 mol/l measured 21 days after seed sowing under greenhouse trials (reference value: 0.0%); conditions: 504 h
Ipomoea grandifolia [18] = test: Phytotoxic activity against Ipomoea grandifolia assessed as weight of aerial parts at 5.0 x 10^-4 mol/l measured 21 days after seed sowing under greenhouse trials (reference value: 17.8 mg)
Ipomoea grandifolia [19] = test: Phytotoxic activity against Ipomoea grandifolia assessed as aerial part growth inhibition at 5.0 x 10^-4 mol/l measured 21 days after seed sowing under greenhouse trials (reference value: 0.0%); conditions: 504 h
Urochloa decumbens [20] = test: Phytotoxic activity against Urochloa decumbens assessed as weight of aerial parts at 5.0 x 10^-4 mol/l measured 21 days after seed sowing under greenhouse trials (reference value: 22.0 mg)
Ipomoea grandifolia [21] = test: Phytotoxic activity against Ipomoea grandifolia assessed as weight of root at 5.0 x 10^-4 mol/l measured 21 days after seed sowing under greenhouse trials (reference value: 18.4 mg)
Urochloa decumbens [22] = test: Phytotoxic activity against Urochloa decumbens assessed as weight of root at 5.0 x 10^-4 mol/l measured 21 days after seed sowing under greenhouse trials (reference value: 21.2 mg)

Compound | germination % at 500 µM (Sorghum bicolor [1]) [%] | inhibition at 500 µM (Cucumis sativus [2]) [%] | inhibition at 500 µM (Cucumis sativus [3]) [%] | inhibition at 500 µM (Sorghum bicolor [4]) [%] | inhibition at 500 µM (Cucumis sativus [5]) [%] | Activity (Cucumis sativus [6]) [mg] | Activity (Sorghum bicolor [7]) [cm] | germination % at 500 µM (Cucumis sativus [8]) [%] | inhibition at 500 µM (Sorghum bicolor [9]) [%] | Activity (Cucumis sativus [10]) [cm] | Activity (Cucumis sativus [11]) [mg] | Activity (Sorghum bicolor [12]) [mg] | Activity (Sorghum bicolor [13]) [mg] | inhibition at 500 µM (Sorghum bicolor [14]) [%] | other results
CC1=C2CCC(C)C[C@@]23O[C@H]1[C@H](C)C(=O)[C@H]3C (some centres not stated) | 96 | 34.4 | 5.9 | 6.2 | 72.4 | 20.3 | 1.5 | 96 | 26.3 | 1.3 | 44.2 | 13.1 | 14 | 71.4 | –
CC[C@@H]1C(=O)[C@@H](CC)[C@@]23CC(C)CCC2=C(C)[C@H]1O3 (some centres not stated) | 93 | 79.7 | 34.6 | 9.3 | 62.9 | 6.3 | 1.7 | 96 | 28.1 | 1.8 | 30.7 | 12.7 | 13.7 | 68 | inhibition at 500 µM (Urochloa decumbens [15]): 75.3%; inhibition at 500 µM (Ipomoea grandifolia [16]): 85.3%; inhibition at 500 µM (Urochloa decumbens [17]): 85.5%; Activity (Ipomoea grandifolia [18]): 6.9 mg; inhibition at 500 µM (Ipomoea grandifolia [19]): 61.8%; Activity (Urochloa decumbens [20]): 5.4 mg; Activity (Ipomoea grandifolia [21]): 2.4 mg; Activity (Urochloa decumbens [22]): 3.4 mg
O=C1[C@@H]2CCCC[C@@H]1[C@@H]1C=C[C@@H]2O1 | 93 | 47.3 | 30.4 | 6.2 | 82.2 | 16.5 | 1.9 | 90 | 4.5 | 0.9 | 32.7 | 13.1 | 18.1 | 62 | –
C[C@@]12C=C[C@H](O1)[C@H]1CCCC[C@H]2C1=O | 99 | 43.1 | 44.6 | 30.7 | 74.7 | 17.6 | 2.1 | 95 | 42.6 | 1.2 | 26 | 9.7 | 10.9 | 58.9 | –
CC[C@@]12C=C[C@H](O1)[C@H]1CCCC[C@H]2C1=O | 100 | 49.2 | 69.2 | 49 | 73.2 | 15.8 | 1.8 | 100 | 48.8 | 1.3 | 14.5 | 7.7 | 9.7 | 64.2 | –
CC1=C[C@@H]2O[C@]1(C)[C@H]1CCCC[C@H]2C1=O | 79 | 62.1 | 65.4 | 49.6 | 82.1 | 11.7 | 0.9 | 96 | 47.4 | 0.9 | 16.3 | 7.1 | 10 | 82.5 | –
C[C@@]12C=C[C@](C)(O1)[C@H]1CCCC[C@H]2C1=O | 100 | 66.2 | 15.6 | 14.8 | 70.7 | 10.5 | 0.9 | 82 | 32.9 | 1.4 | 39.7 | 11.9 | 12.7 | 83.4 | –
CC(=O)[C@@]12C=C[C@H](O1)[C@H]1CCCC[C@H]2C1=O | 96 | 84.1 | 57.4 | 23.2 | 82.1 | 4.9 | 0.6 | 86 | 6 | 0.9 | 20 | 10.7 | 17.8 | 88.5 | inhibition at 500 µM (Urochloa decumbens [15]): 66.5%; inhibition at 500 µM (Ipomoea grandifolia [16]): 46.2%; inhibition at 500 µM (Urochloa decumbens [17]): 78.4%; Activity (Ipomoea grandifolia [18]): 10.9 mg; inhibition at 500 µM (Ipomoea grandifolia [19]): 39.4%; Activity (Urochloa decumbens [20]): 7.4 mg; Activity (Ipomoea grandifolia [21]): 8.6 mg; Activity (Urochloa decumbens [22]): 4.5 mg
CC12OC(C3OOC1O3)C1CCCCC2C1=O (mixture of isomers) | 96 | 65.9 | 63.9 | 11.8 | 52 | 10.6 | 1.5 | 70 | 20 | 2.3 | 17 | 12.7 | 15.4 | 71.5 | –
CC12OOC(O1)C1OC2(C)C2CCCCC1C2=O (mixture of isomers) | 100 | 57.4 | 29.9 | 34.6 | 84.2 | 13.2 | 1 | 100 | 41.8 | 0.8 | 32.9 | 9.2 | 11.1 | 80.2 | –
CC1CCC23OOC(C)(O2)C2OC3(C1)C(C)C(=O)C2C (mixture of isomers) | 96 | 50.8 | 36.9 | 9.1 | 39.9 | 15.3 | 1.4 | 93 | 6.8 | 2.9 | 29.7 | 12.7 | 17.7 | 72.1 | –
CCC1C(=O)C(CC)C23CC(C)CCC24OOC(C)(O4)C1O3 (mixture of isomers) | 100 | 6.5 | 36 | 6.5 | 55.6 | 29 | 2.3 | 96 | 39.6 | 2.1 | 30.1 | 13.1 | 11.5 | 55.1 | –
C[C@@H]1CC[C@H]2[C@@H](C)C(=O)O[C@@H]3O[C@@]4(C)CC[C@@H]1[C@]32OO4 [ARTEMISININ] | – | – | – | – | – | – | – | – | – | – | – | – | – | – | inhibition at 500 µM (Urochloa decumbens [15]): 93.6%; inhibition at 500 µM (Ipomoea grandifolia [16]): 95%; inhibition at 500 µM (Urochloa decumbens [17]): 95%; Activity (Ipomoea grandifolia [18]): 1.2 mg; inhibition at 500 µM (Ipomoea grandifolia [19]): 93.6%; Activity (Urochloa decumbens [20]): 2.9 mg; Activity (Ipomoea grandifolia [21]): 0.7 mg; Activity (Urochloa decumbens [22]): 3.1 mg
